Measured values: ChEMBL document CHEMBL1129869, “SPORANDOL: A NOVEL ANTIPARASITIC BINAPHTHALENE FROM CHRYSOSPORIUM MERIDARIUM” (Bioorg Med Chem Lett, 1997)
Calls of active or inactive are those of the source. No cut-off for these calls is given here.

Tests used:
Fasciola hepatica = assay: Antiparasitic activity against endo parasite Fasciola hepatica in mouse at a dose of 190 mg/kg; Active; assay type: functional, organism-based; design: dose 190 mg/kg
Dipetalogaster maximus = assay: Antiparasitic activity against ecto parasite Dipetalogaster maximus in mouse at a dose of 190 mg/kg; Active; assay type: functional, organism-based; design: dose 190 mg/kg

`COc1cc2cc(C)c(C(C)=O)c(O)c2c(O)c1-c1c(OC)cc2cc(C)c(C(C)=O)c(O)c2c1O` was tested, and the Activity (Fasciola hepatica) was “Active” and the Activity (Dipetalogaster maximus) was “Active”.
